{"source": "paper PMC11054638", "about": "“Transport of Non-Steroidal Anti-Inflammatory Drugs across an Oral Mucosa Epithelium In Vitro Model” (Pharmaceutics, 2024)", "key": {"in vitro [1]": {"experiment": "in vitro", "conditions": "human", "protocol": "(§1) As soon as cells reached confluency, cultivation was switched from submerged to airlift and 1% Human Keratinocytes Growth Supplements (HKGS, Gibco, Thermofisher, Vienna, Austria, S0015) was added to the cultivation media on the basolateral compartment. Media were changed every 2–3 days until the day of experiment on day 29. Cells from passage 14–36 were used for experiments. Transepithelial electric resistance (TEER) was measured on day of experiment, as described in detail previously.\n(§2) Solutions were diluted to 10 µM (carboxyfluorescein) or 100 µM in DMEM on day of experiments.\n(§3) First, TEER was measured in cultivation media on the day of experiment. Afterwards, cells and blanks were washed twice with DMEM on the apical (300 µL) and basolateral (900 µL) compartments and selected cells and blanks were treated with DMEM with or without 100 µM probenecid or verapamil on the apical and basolateral side at 37 °C for 30 min. […] To cells which were pre-incubated with probenecid or verapamil, 100 µM probenecid or verapamil was applied apically as well. DMSO content was adapted for cells with no inhibitors, and DMSO and dd-H2O content was adjusted in the basolateral compartment as well in order to apply the same vehicle concentrations on the apical and basolateral compartment. […] Subsequently, duplicates of apical sample were collected, and samples were frozen at −80 °C until further analysis with High-Performance Liquid Chromatography (HPLC).\n(§4) Peaks were quantified using the software Chromeleon Version 7.2.6, and corresponding mili absorbance unit × time [mAU × min] values were used for data analysis.\n(§5) Mean values of relative fluorescence unit (RFU) or detected area [mAU × min] were used for calculation. For the first timepoint, the clearance [µL] for the detected area was calculated as shown in the formula below (1a), with Abasot1 as the measured area [mAU × min] at the first time point of the basolateral sample, Vbaso as the basolateral volume [µL] and Astock as the area measured for the applied stock solution. […] Clearance [µL] for carboxyfluorescein was calculated with the same formulas using RFU. (1a) Clearance=Abasot1×Vbaso/AStock (1b) Clearancetn=Abasotn×Vbaso/AStock−∑(Abasotn−1 ×3− Abasot1 ×3)\n(§6) Cleared volume [µL] was calculated by plotting the sum of clearance at all time points over time [min]. The resulting slope PS [µL/min] was calculated inversely. For calculation of the PScell, the inverse PS blanks were subtracted, as shown below in Formula (2). (2) 1/PScell=1/PSall−1/PSblank\n(§7) The final permeability coefficient is calculated by dividing the inverse PScell by the area of the ThinCerts (0.336 cm^2) and multiplying by a conversion factor to give the permeability coefficient as µm/min."}, "[2]": {"tested_on": "oral mucosa epithelium in vitro model based on human cell line TR146", "experiment": "Transport study across oral mucosa Transwell model, apical to basolateral, 240 min", "conditions": "for permeability coefficient: mean ± SEM", "protocol": "as §1, §2, §3, §4, §5, §6, §7"}, "[3]": {"experiment": "Transport study across blank inserts without cells", "conditions": "Ibuprofen study, mean ± SD", "protocol": "as §3, §5, §6"}, "TR146 cell layers": {"tested_on": "TR146 cell layers", "experiment": "TEER after 48 h inflammation study", "type": "cell-based, human", "conditions": "48 h treatment; ibuprofen 100 µM; cytokines 100 ng/mL each"}, "[4]": {"tested_on": "COX-1 and COX-2 protein in TR146 cells", "experiment": "Western blot for COX-1 and COX-2 after inflammation study", "type": "cell-based, human", "conditions": "48 h treatment"}, "[5]": {"conditions": "after oral administration of 200 mg ref 52, 53; cited from earlier work"}, "PC3 cells": {"tested_on": "PC3 cells", "conditions": "1500 µM for 24 h ref 60; cited from earlier work"}, "in vitro [6]": {"experiment": "in vitro", "conditions": "human, not told, permeability coefficient, without probenecid"}, "[7]": {"conditions": "CXlogD at pH 7.4 ref https://ebi.ac.uk (02.04.2024); cited from earlier work"}, "[8]": {"conditions": "Ibuprofen study, Probenecid, mean ± SD"}, "[9]": {"conditions": "Ibuprofen study, Verapamil, mean ± SD"}, "[10]": {"conditions": "Ibuprofen study, w/o Inhibitor, mean ± SD"}}}
{"smiles": "CC(C)Cc1ccc(C(C)C(=O)O)cc1", "note": "(stereo not shown) [ibuprofen]", "values": [{"measurement": "Papp A→B at 240 min", "setting": "in vitro [1]; PC (permeability of cell)", "value": 13.1, "unit": "×10⁻⁶ cm/s"}, {"measurement": "Papp A→B at 240 min", "setting": "in vitro [1]; PE (permeability of cell + blank)", "value": 5.45, "unit": "×10⁻⁶ cm/s"}, {"measurement": "PS all (cell + blank)", "setting": "[2]; [8]", "value": "0.12 ± 0.03", "unit": "µL/min"}, {"measurement": "PS cell", "setting": "[2]; [8]", "value": "0.26 ± 0.11", "unit": "µL/min"}, {"measurement": "PS all (cell + blank)", "setting": "[2]; [9]", "value": "0.11 ± 0.01", "unit": "µL/min"}, {"measurement": "PS cell", "setting": "[2]; [9]", "value": "0.24 ± 0.04", "unit": "µL/min"}, {"measurement": "PE (permeability of cell + blank)", "setting": "[2]; [10]", "value": "2.94 ± 0.3", "unit": "µm/min"}, {"measurement": "PS all (cell + blank)", "setting": "[2]; [10]", "value": "0.1 ± 0.01", "unit": "µL/min"}, {"measurement": "PS cell", "setting": "[2]; [10]", "value": "0.19 ± 0.05", "unit": "µL/min"}, {"measurement": "Permeability coefficient without inflammation and inhibitor", "setting": "[2]; Table S3, mean ± SD", "value": "5.77 ± 1.48", "unit": "µm/min"}, {"measurement": "PE (permeability of cell + blank)", "setting": "[2]; human, 240 min", "value": "3.47 ± 0.76", "unit": "µm/min"}, {"measurement": "increase of permeability coefficient with probenecid compared to no inhibitor", "setting": "[2]; human, 240 min, 100 µM", "value": 1.36, "unit": "fold"}, {"measurement": "increase of permeability coefficient with verapamil compared to no inhibitor", "setting": "[2]; human, 240 min, 100 µM", "value": 1.23, "unit": "fold"}, {"measurement": "cumulated concentration of NSAID in the basolateral compartment", "setting": "[2]; human, 4 h, 100 µM", "value": "0.067 ± 0.0078", "unit": "nmol/mm^2"}, {"measurement": "permeability coefficient", "setting": "[2]; with 100 µM probenecid", "value": "7.87 ± 1.32", "unit": "µm/min"}, {"measurement": "permeability coefficient", "setting": "[2]; with 100 µM verapamil", "value": "7.13 ± 0.51", "unit": "µm/min"}, {"measurement": "permeability coefficient", "setting": "[2]; without inhibitor, 100 µM apical (CF 10 µM)", "value": "5.77 ± 0.60", "unit": "µm/min"}, {"measurement": "PS blank", "setting": "[3]; Probenecid", "value": "0.22 ± 0.02", "unit": "µL/min"}, {"measurement": "PS blank", "setting": "[3]; Verapamil", "value": "0.21 ± 0.02", "unit": "µL/min"}, {"measurement": "PS blank", "setting": "[3]; w/o Inhibitor", "value": "0.21 ± 0.03", "unit": "µL/min"}, {"measurement": "TEER values after 48 h", "setting": "TR146 cell layers", "value": "69.65 ± 9.10 Ω × cm^2"}, {"measurement": "COX-2 protein expression", "setting": "[4]", "value": "no up-regulation of COX-2"}, {"measurement": "plasma concentration", "setting": "[5]", "value": "116 to 142.5", "unit": "µM"}, {"measurement": "COX-2 expression", "setting": "PC3 cells", "value": "upregulation of COX-2"}, {"measurement": "Papp A→B at 4 h", "setting": "in vitro [6]; cell layers pre-treated with cytokines 48 h, 4 h transport", "value": 33.4, "unit": "×10⁻⁶ cm/s"}, {"measurement": "Papp A→B at 4 h", "setting": "in vitro [6]; cell layers pre-treated with cytokines plus ibuprofen 48 h, 4 h transport", "value": 35.1, "unit": "×10⁻⁶ cm/s"}, {"measurement": "Papp A→B at 4 h", "setting": "in vitro [6]; control cell layers, 4 h transport after 48 h", "value": 24, "unit": "×10⁻⁶ cm/s"}, {"measurement": "XlogD", "setting": "[7]", "value": 1.34}]}
